On the set-up of data set [1]: species or system Göttingen mini-pigs. As to conditions: minipig, in vivo, iv, 10 nmol/kg. On the procedure: Assay (II): Minipig i.v. PK
Six male Göttingen mini-pigs weighing approximately 20 to 23 kg from Ellegaard Gottingen Minipigs A/S, Denmark were comprised in the study. The mini-pigs were dosed intra venous (i.v.) via a central catheter in vena cava caudalis. The catheter was flushed with 10 ml saline post administration. Blood was sampled from the central catheter. Test substances were dissolved in a vehicle consisting of in 50 mM sodium phosphate, […] sodium chloride, 0.05% tween80 pH 7.4. The pigs were dosed with 10 nmol of gastrin compound (such as gastrin derivative)/kg body weight or 10 nmol Gastrin-17/kg body weight. Blood samples were taken at the following time points: pre-dose, 5 minutes, 15 minutes, 30 minutes, 45 minutes, 1, 1.5, 2, 3, 4, 6, 8, 10, 24, 48, 72, 96, 120, 168, 192 and 216 hours post dosing. The blood samples were collected into test tubes containing EDTA buffer for stabilization and kept on ice for max. 20 minutes before centrifugation. The centrifugation procedure to separate plasma may be: 4° C., approx. 2500 g for 10 minutes. Plasma was collected and immediately transferred to Micronic tubes stored at −20° C. until assayed.
Blood samples were analysed for gastrin compound content using a competitive scintillation proximity assay (SPA). The assay is a radiometric-ligand binding assay using […]™ imaging particles. The assay involves a rabbit anti-human gastrin-17(2-17) polyclonal antibody, wherein the human gastrin-17(2-17) against which said antibody raised contained position 2-17 of SEQ ID NO:2 (said antibody is obtainable from professor Jens Rehfeld, Rigshospitalet, Copenhagen, Denmark), [^125I]-Tyr^12 gastrin I (human) (which has the sequence pG1u-[…][^125I]Tyr-Gly-Trp-Met-Asp-Phe-NH2, item no. NEX176010UC, […]® Waltham, Massachusetts, USA) and PS […]™ particles coated with anti-rabbit Ig antibodies. Gastrin compounds (in calibrators, controls or unknown samples) and [^125I]-Tyr12 human gastrin I will compete for the binding to the polyclonal rabbit anti human gastrin I antibody. The anti-rabbit Ig antibodies on the […]™ particles recognize the anti-gastrin antibodies bringing the [^125I-] gastrin molecules in close proximity to the […]™ particles resulting in light emission from the particles. The […]™ will image the emitted light that is reversely correlated to the amount of gastrin compound present in the sample. 5μL sample, calibrator or control was applied to white 384-well polystyrene plates followed by 10μantibody working solution (rabbit-anti-Gastrin serum from rabbit 2609 batch 11/10-73), 10μl tracer working solution and 10μl bead working solution. […] After exchanging the seal against a new one, the light emission was detected with a […]™ Multimodality Imaging System. […]
The concentration-response relationship was calculated using a four-parameter logistic model using non linear regression analysis and the output of the assay was the concentration of the respective gastrin analogue in pM. The in vivo plasma half life was determined by non-compartmental analysis (NCA) of plasma concentration-time profiles from each animal. NCA may be carried out as follows: Plasma concentration-time profiles were analyzed by non-compartmental pharmacokinetics analysis (NCA) using WinNonlin (Pharsight Inc., Mountain View, Calif., USA); NCA was performed using the individual plasma concentration-time profiles from each animal.
Half life of gastrin compounds was determined according to Assay (II).

The target in data set [2] is T1, CCK2 receptor (gastrin receptor) (Homo sapiens, UniProt P32239).
T1 construct: expressed in transfected cells; host or cells: NIH 3T3/CCK2R cells (mouse fibroblast line overexpressing CCK2R, kept under G418 selection)
T1 sequence (P32239 1-447): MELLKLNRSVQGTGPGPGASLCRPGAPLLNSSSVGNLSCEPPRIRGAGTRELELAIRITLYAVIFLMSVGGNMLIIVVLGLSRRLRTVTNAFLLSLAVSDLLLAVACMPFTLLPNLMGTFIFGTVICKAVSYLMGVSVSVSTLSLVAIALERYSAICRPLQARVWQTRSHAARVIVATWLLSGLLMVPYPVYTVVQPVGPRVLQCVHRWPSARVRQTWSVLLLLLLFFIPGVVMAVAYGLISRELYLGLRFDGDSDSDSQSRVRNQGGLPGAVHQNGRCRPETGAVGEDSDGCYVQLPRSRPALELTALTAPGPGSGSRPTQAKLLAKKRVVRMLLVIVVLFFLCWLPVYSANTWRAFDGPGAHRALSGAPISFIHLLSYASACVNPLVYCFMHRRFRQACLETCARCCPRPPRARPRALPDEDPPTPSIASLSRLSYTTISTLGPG
The data set is classed as cell-based. The settings on record: [Leu15] Gastrin-17 = 100, NIH 3T3/CCK2R cells, calcium mobilization. How it is done:
Assay (I): In Vitro Receptor Potency In vitro receptor potency was measured using a CCK2 receptor mediated calcium mobilization assay. The CCK2 receptor (gastrin receptor) signals via the heterotrimeric G-protein, Gq, to activate phospholipase C(PLC). This leads to generation of inositol-1,4,5-trisphosphate (IP3) that releases calcium from intracellular stores. The primary rise in cytosolic calcium concentration is followed by activation of calcium dependent calcium channels in the plasma membrane allowing extracellular calcium to enter the cell. The rise in calcium concentration is transient, but it can be measured in situ by loading the cells with a calcium dependent fluorescent probe and monitored by the use of 96- or 384-well fluorescence plate readers. In the current assay, NIH 3T3/CCK2R cells were seeded in black PolyLysin coated 384 well plates with clear bottom at 14000 cells per well and incubated overnight in 25 μl (per well) Gibco Nut. mix F-12 Glutamax medium with 10% FCS, 1% penicillin and streptomycin and 1 mg/ml […]418). The next day […] dye solution (Ca 5 probe from Molecular Devices, dissolved in HBSS/Hepes buffer pH 7.4 containing 0.1% Ovalbumin, 0.005% Tween 20, 3.5 μM Probenecid, 50 μM PDE inhibitor and 0.2% CaCl2) was added per well and the plate was incubated for 1 hour at room temperature. After incubation, these plates were loaded onto FLIPR Tetra from Molecular Devices together with the sample plates containing dilution series of gastrin analogues in HBSS/Hepes buffer with 30% DMSO. During the assay run, 1 μl sample was transferred from the sample plate to the assay plate. Beside the baseline fluorescence measurement, a second fluorescence measurement was performed after 30 seconds with both measurements using the […] 540 nm/590 nm. For each agonist concentration E=Emax. Emin was calculated. The concentration-response relationship was calculated using a four-parameter logistic model using non linear regression analysis (Prism 5.02, GraphPad Software). In vitro receptor potency of gastrin compounds was measured using Assay (I).

For data set [3] the following is noted: dog, in vivo; cited from earlier work.
[4] abbreviates: Table 2: N-terminal acylation/truncation series.

Read-outs that look alike come from different tables or passages of the source. Numbered stars: 1 amine (or outer) side, 2 acyl side, 3 side chain; on linkers, the order of the positions; unused ones are H or OH. Peptide text beside a SMILES is read from it. * marks the point of attachment. C18 diacid = O=C(O)CCCCCCCCCCCCCCCCC(=O)*; γGlu = O=C(O)[C@H](CCC(=O)[*:2])N[*:1]; AEEA = NCCOCCOCC(=O)O

Turning to `CSCC[C@H](NC(=O)[C@H](Cc1c[nH]c2ccccc12)NC(=O)CNC(=O)[C@H](Cc1ccc(O)cc1)NC(=O)[C@H](C)NC(=O)[C@H](CCC(=O)O)NC(=O)[C@H](CCC(=O)O)NC(=O)[C@H](CCC(=O)O)NC(=O)[C@H](CCC(=O)O)NC(=O)[C@H](CCC(=O)O)NC(=O)[C@H](CC(C)C)NC(=O)[C@H](Cc1c[nH]c2ccccc12)NC(=O)[C@@H]1CCCN1C(=O)CNC(=O)[C@H](CCC(N)=O)NC(=O)COCCOCCNC(=O)COCCOCCNC(=O)CC[C@H](NC(=O)CCCCCCCCCCCCCCCCC(=O)O)C(=O)O)C(=O)N[C@@H](CC(=O)O)C(=O)N[C@@H](Cc1ccccc1)C(N)=O` [N-alpha-#-gastrin-17, N-alpha-{2-(2-{2-[2-(2-{2-[4-Carboxy-4-(17-carboxyheptadecanoylamino)butyrylamino]ethoxy}-ethoxy)acetylamino]-ethoxy}ethoxy)acetyl}[Gln1] gastrin-17 (A)], the half-life (in general, how long it takes for the measured level to halve) in data set [1] is 64 ± 6 h.

Regarding `CC(C)C[C@H](NC(=O)[C@H](Cc1c[nH]c2ccccc12)NC(=O)CNC(=O)[C@H](Cc1ccc(O)cc1)NC(=O)[C@H](C)NC(=O)[C@H](CCC(=O)O)NC(=O)[C@H](CCC(=O)O)NC(=O)[C@H](CCC(=O)O)NC(=O)[C@H](CCC(=O)O)NC(=O)[C@H](CCC(=O)O)NC(=O)[C@H](CC(C)C)NC(=O)[C@H](Cc1c[nH]c2ccccc12)NC(=O)[C@@H]1CCCN1C(=O)CNC(=O)[C@H](CCC(N)=O)NC(=O)COCCOCCNC(=O)COCCOCCNC(=O)CC[C@H](NC(=O)CCCCCCCCCCCCCCCCC(=O)O)C(=O)O)C(=O)N[C@@H](CC(=O)O)C(=O)N[C@@H](Cc1ccccc1)C(N)=O` [N-α-#-[Leu15] Gastrin-17, N-alpha-{2-(2-{2-[2-(2-{2-[4-Carboxy-4-(17-carboxyheptadecanoylamino)butyrylamino]ethoxy}-ethoxy)acetylamino]-ethoxy}ethoxy)acetyl}[Gln1,Leu15] gastrin-17] ({C18 diacid-γGlu-AEEA-AEEA}-QGPWLEEEEEAYGWLDF-NH2), the “Relative Receptor Potency” value in data set [2] (setting [4]) is recorded as 76; in data set [2] (Table 3: acylation position (Lys scan) series), 57. The molecule further gave a half-life in data set [1] of 109 ± 26 h.

Consider `CC(C)C[C@H](NC(=O)[C@H](Cc1c[nH]c2ccccc12)NC(=O)CNC(=O)[C@H](Cc1ccc(O)cc1)NC(=O)[C@H](C)NC(=O)[C@H](CCC(=O)O)NC(=O)[C@H](CCC(=O)O)NC(=O)[C@H](CCC(=O)O)NC(=O)[C@H](CCC(=O)O)NC(=O)COCCOCCNC(=O)COCCOCCNC(=O)CC[C@H](NC(=O)CCCCCCCCCCCCCCCCC(=O)O)C(=O)O)C(=O)N[C@@H](CC(=O)O)C(=O)N[C@@H](Cc1ccccc1)C(N)=O` [N-α-#-[Leu15] Gastrin-17 (7-17), N-alpha-{2-(2-{2-[2-(2-{2-[4-Carboxy-4-(17-carboxyheptadecanoylamino)butyrylamino]ethoxy}-ethoxy)acetylamino]-ethoxy}ethoxy)acetyl}[Leu15] gastrin-17 (7-17)] ({C18 diacid-γGlu-AEEA-AEEA}-EEEEAYGWLDF-NH2), for which the “Relative Receptor Potency” value in data set [2] (setting [4]) came to 39. Further, in data set [1], the half-life is about 95 h.

Turning to `CSCC[C@H](NC(=O)[C@H](Cc1c[nH]c2ccccc12)NC(=O)CNC(=O)[C@H](Cc1ccc(O)cc1)NC(=O)[C@H](C)NC(=O)[C@H](CCC(=O)O)NC(=O)[C@H](CCC(=O)O)NC(=O)[C@H](CCC(=O)O)NC(=O)[C@H](CCC(=O)O)NC(=O)[C@H](CCC(=O)O)NC(=O)[C@H](CC(C)C)NC(=O)[C@H](Cc1c[nH]c2ccccc12)NC(=O)[C@@H]1CCCN1C(=O)CNC(=O)[C@@H](N)CCC(N)=O)C(=O)N[C@@H](CC(=O)O)C(=O)N[C@@H](Cc1ccccc1)C(N)=O` [gastrin-17, reference compound], in data set [3], the half life is 2 to 8 min. In data set [1], this molecule showed a half-life of 0.058 ± 0.007 h.

Regarding `CC(C)C[C@H](NC(=O)[C@H](Cc1c[nH]c2ccccc12)NC(=O)CNC(=O)[C@H](Cc1ccc(O)cc1)NC(=O)[C@H](C)NC(=O)[C@H](CCC(=O)O)NC(=O)[C@H](CCC(=O)O)NC(=O)[C@H](CCC(=O)O)NC(=O)[C@H](CCC(=O)O)NC(=O)[C@H](CCC(=O)O)NC(=O)[C@H](CC(C)C)NC(=O)[C@H](Cc1c[nH]c2ccccc12)NC(=O)COCCOCCNC(=O)COCCOCCNC(=O)CC[C@H](NC(=O)CCCCCCCCCCCCCCCCC(=O)O)C(=O)O)C(=O)N[C@@H](CC(=O)O)C(=O)N[C@@H](Cc1ccccc1)C(N)=O` [N-α-#-[Leu15] Gastrin-17 (4-17), N-alpha-{2-(2-{2-[2-(2-{2-[4-Carboxy-4-(17-carboxyheptadecanoylamino)butyrylamino]ethoxy}-ethoxy)acetylamino]-ethoxy}ethoxy)acetyl}[Leu15] gastrin-17 (4-17)] ({C18 diacid-γGlu-AEEA-AEEA}-WLEEEEEAYGWLDF-NH2), the “Relative Receptor Potency” value in data set [2] (setting [4]) is listed as 58. In addition, the half-life in data set [1] was 95 h.

These data come from patent US9040660B2, “Long-acting gastrin derivatives” (priority 2010, dated 2015).
